The results in this text go back to patent US20230173082A1, “ANTIBACTERIAL PRODUCTS” (UNIVERSITY OF LINCOLN, priority 2014, published 2023).

Where “and” joins values, the source holds several entries; their conditions need not be identical. Equal entries are not always repeated. Where two headings read alike, the source gives them in different places.

As usually defined, the MBC is the lowest tested concentration that kills the bacteria rather than only halting them. Usually MIC stands for the least concentration at which growth counts as inhibited.

One data set has as its system B. Subtilis 2410. As to the kind of experiment: MIC testing (MIC/MBC), broth dilution. The class given is cell-based. The conditions noted are these: delivery agents with Moenomycin A at 1:2 ratio. The procedure:
(§1) • The bacteria were grown in 5 ml of Mueller Hinton Broth overnight at 37° C. • The inhibitor was tested on its own or in conjunction with a cell penetrating peptide (CPP). • When tested with a CPP they were incubated together at room temperature for 1 hour before use. • Delivery agents (Compound 5, Compound 6, and 7) were used at a 1:2 ratio.

A further data set deals with K. Pneumonia 700603. Description: MIC testing (MIC/MBC), broth dilution. The data set is classed as cell-based. Particulars: runs A, B, C, delivery agents with Moenomycin A at 1:2 ratio; for MIC: 24 hours at 37° C. The procedure: as §1
A general note: Broth dilution looks for growth in wells or tubes with falling amounts of substance.

The test system of a further data set is P. Aeruginosa 27853. As to the kind of experiment: MIC testing (MIC/MBC), broth dilution. The data set is classed as cell-based. Particulars: runs A, B, C, delivery agents with Moenomycin A at 1:2 ratio; for MIC: 24 hours at 37° C. As to the method: as §1
The test system of another data set is A. Baumannii 19606. As to the kind of experiment: MIC testing (MIC/MBC), broth dilution. Particulars: runs A, B, C, delivery agents with Moenomycin A at 1:2 ratio; for MIC: 24 hours at 37° C. The data set is classed as cell-based. As to the method:
as §1

The test system of a further data set is E. Coli 25922. Description: MIC testing (MIC/MBC), broth dilution. The class given is cell-based. Particulars: delivery agents with Moenomycin A at 1:2 ratio. The procedure: as §1
The subject of a further data set is tumor cell line 786-O. Description: In vitro cell viability in tumor cell line 786-O. The class given is cell-based. The conditions noted are these: initial in vitro testing.
A further data set relates to HeLa cells. As to the kind of experiment: In vitro toxicity testing in HeLa cells. The data set is classed as cell-based.
The test system of data set [1] is mammalian cells. Description: Mammalian cytotoxicity (cell type not stated).
For data set [2], the system named is mammalian cells.
[3] abbreviates: Bacillus subtilis, read-out: MBC.
[4] abbreviates: Bacillus subtilis, read-out: MIC.
[5] abbreviates: Acinetobacter baumannii, read-out: MIC.
Setting [6] is: Escherichia coli, read-out: MBC.
Setting [7] is: Escherichia coli, read-out: MIC.
Where [8] appears, read: Pseudomonas aeruginosa, read-out: MIC.
The mark [9] stands for this setting: Pseudomonas aeruginosa, read-out: MBC.

As for `CC1(C)S[C@@H]2[C@H](NC(=O)[C@H](N)c3ccccc3)C(=O)N2[C@H]1C(=O)O` [Ampicillin, reference compound], the minimal bactericidal concentration (MBC) in the data set on B. Subtilis 2410 (setting [3]) was 256 µg/mL; in the data set on K. Pneumonia 700603, “Growth in all wells”; with P. Aeruginosa 27853 it was “Growth in all wells”; with A. Baumannii 19606, “Growth in all wells”; with E. Coli 25922 (setting [6]) it was 8 µg/mL. The MIC is 128 µg/mL in the data set on B. Subtilis 2410 (setting [4]); “Growth in all wells” in the data set with K. Pneumonia 700603; “Growth in all wells” in the data set with P. Aeruginosa 27853; 128 µg/mL in the data set on A. Baumannii 19606 (setting [5]); 8 µg/mL in the data set on E. Coli 25922 (setting [7]).
For `CCCCCCCCCCCCCCCCCC(=O)OC(COC(COCC(COC(=O)NCCCN(C)CCCN)OC(=O)NCCCN(C)CCCN)COCC(COC(=O)NCCCN(C)CCCN)OC(=O)NCCCN(C)CCCN)COC(COCC(COC(=O)NCCCN(C)CCCN)OC(=O)NCCCN(C)CCCN)COCC(COC(=O)NCCCN(C)CCCN)OC(=O)NCCCN(C)CCCN` (centres unmarked) [Compound 6], the “effect on cell viability” value in the data set with tumor cell line 786-O was “did not affect the cell viability”. Besides, in the data set with HeLa cells, the “concentration at which toxic” value was determined as 20000 ng/mL. The MBC in the data set on B. Subtilis 2410 (setting [3]) is 32 µg/mL; in the data set with P. Aeruginosa 27853 (setting [9]), 256 µg/mL; with A. Baumannii 19606 (Acinetobacter baumannii, read-out: MBC), 256 µg/mL. Also, the minimal inhibitory concentration (MIC) in the data set with B. Subtilis 2410 (setting [4]) is 32 µg/mL; in the data set on P. Aeruginosa 27853 (setting [8]), 256 µg/mL; with A. Baumannii 19606 (setting [5]), 256 µg/mL; in the data set on E. Coli 25922 (setting [7]), 256 µg/mL.
With `C=C(C/C=C(\C)CCC=C(C)C)CCC(C)(C)/C=C/CC/C(C)=C/CO[C@@H](COP(=O)(O)O[C@H]1O[C@H](C(N)=O)[C@@](C)(O)[C@H](OC(N)=O)[C@H]1O[C@@H]1O[C@H](CO[C@@H]2O[C@H](CO)[C@@H](O)[C@H](O)[C@H]2O)[C@@H](O[C@@H]2O[C@H](C)[C@@H](O[C@@H]3O[C@H](C(=O)NC4=C(O)CCC4=O)[C@H](O)[C@H](O)[C@H]3O)[C@H](O)[C@H]2NC(C)=O)[C@H](O)[C@H]1NC(C)=O)C(=O)O` [Moenomycin A, reference compound], in the data set with mammalian cells [1], the “concentration up to which no toxicity was observed” value is “up to 10 mg/mL”. The minimal bactericidal concentration (MBC) result in the data set with B. Subtilis 2410 was “Growth in all wells”; in the data set with K. Pneumonia 700603 it was 128 µg/mL; in the data set with P. Aeruginosa 27853, “Growth in all wells”; with A. Baumannii 19606, 8 µg/mL; with E. Coli 25922, 128 µg/mL. For the same compound, the MIC with B. Subtilis 2410 was 256 µg/mL; in the data set on K. Pneumonia 700603, 64 µg/mL; in the data set on P. Aeruginosa 27853 it was 256 µg/mL; in the data set with A. Baumannii 19606, 4 µg/mL and 8 µg/mL; with E. Coli 25922 it was 32 µg/mL.
Regarding `CCCCCCCCCCCCCCCCCC(=O)OC(COCC(COC(=O)NCCCN(C)CCCN)OC(=O)NCCCN(C)CCCN)COCC(COC(=O)NCCCN(C)CCCN)OC(=O)NCCCN(C)CCCN` (centres unmarked) [Compound 5], the MBC in the data set with B. Subtilis 2410 (setting [3]) is 32 µg/mL; with K. Pneumonia 700603 (Klebsiella pneumoniae, read-out: MBC), 128 µg/mL; in the data set with K. Pneumonia 700603, 64 µg/mL; in the data set on P. Aeruginosa 27853 (setting [9]) it was 256 µg/mL; with E. Coli 25922 (setting [6]), 128 µg/mL. Further, the MIC in the data set on B. Subtilis 2410 (setting [4]) amounted to 32 µg/mL; in the data set on K. Pneumonia 700603 (Klebsiella pneumoniae, 24 h, read-out: MIC), 128 µg/mL; in the data set on K. Pneumonia 700603, 64 µg/mL; in the data set on P. Aeruginosa 27853 (setting [8]), 256 µg/mL; in the data set on E. Coli 25922 (setting [7]) it was 64 µg/mL.
`N=C(N)NCCNC(=O)CCN(CCC(=O)NCCNC(=N)N)CCN(CCC(=O)NCCNC(=N)N)CCC(=O)NCCNC(=N)N` [Compound 7, 3,3’,3”,3”’-(Ethane-1,2-Divlbis(Azanetrivl)) Tetrakis(N-(2-Guanidinoethyl)Propanamide)]: the MIC entry with K. Pneumonia 700603, in the data set with P. Aeruginosa 27853 and with A. Baumannii 19606 was “Growth in all wells” each time. The MBC result in the data set with K. Pneumonia 700603, in the data set with P. Aeruginosa 27853 and with A. Baumannii 19606 was “Growth in all wells” each time.
As to `C#CC(=O)N[C@@H](CCCNC(=N)N)C(=O)N[C@@H](CCCNC(=N)N)C(=O)N[C@@H](CCCNC(=N)N)C(=O)N[C@@H](CCCNC(=N)N)C(=O)N[C@@H](CCCNC(=N)N)C(=O)N[C@@H](CCCNC(=N)N)C(=O)N[C@@H](CCCNC(=N)N)C(=O)N[C@@H](CCCNC(=N)N)C(N)=O` [Compound 8], in the data set on mammalian cells [2], the “concentration up to which no toxicity was observed” value is recorded as “up to 110 µg/mL”.
